# Source: ChEMBL document CHEMBL1137898, “Benzopyranones with retro-amide side chains as (inhibitory) beta-lactamase substrates” (Bioorg Med Chem Lett, 2004)
# What was measured:
# [1] = molecular target: Beta-lactamase OXA-1 (Escherichia coli) (UniProt P13661); test: Steady state kinetic as limiting rate of OXA-1 beta-lactamase hydrolysis
# [2] = molecular target: Beta-lactamase TEM (Escherichia coli) (UniProt P62593); test: Steady state kinetic as limiting rate of TEM-2 beta-lactamase hydrolysis
# [3] = molecular target: Beta-lactamase (Enterobacter cloacae) (UniProt P05364); test: Steady state kinetic as limiting rate of Enterobacter cloacae P99 Beta-lactamase catalyzed hydrolysis
# [4] = molecular target: Beta-lactamase (Staphylococcus aureus) (UniProt P00807); test: Steady state kinetic as limiting rate of Staphylococcus aureus PC1 Beta-lactamase hydrolysis
# [5] = molecular target: D-alanyl-D-alanine carboxypeptidase (Streptomyces sp. R61) (UniProt P15555); test: Second order rate constant for inactivation of Streptomyces R61 D-alanyl-D-alanine carboxypeptidase; conditions: Streptomyces spp.
# D-alanyl-D-alanine carboxypeptidase (Streptomyces sp. R61), sequence (P15555 whole entry): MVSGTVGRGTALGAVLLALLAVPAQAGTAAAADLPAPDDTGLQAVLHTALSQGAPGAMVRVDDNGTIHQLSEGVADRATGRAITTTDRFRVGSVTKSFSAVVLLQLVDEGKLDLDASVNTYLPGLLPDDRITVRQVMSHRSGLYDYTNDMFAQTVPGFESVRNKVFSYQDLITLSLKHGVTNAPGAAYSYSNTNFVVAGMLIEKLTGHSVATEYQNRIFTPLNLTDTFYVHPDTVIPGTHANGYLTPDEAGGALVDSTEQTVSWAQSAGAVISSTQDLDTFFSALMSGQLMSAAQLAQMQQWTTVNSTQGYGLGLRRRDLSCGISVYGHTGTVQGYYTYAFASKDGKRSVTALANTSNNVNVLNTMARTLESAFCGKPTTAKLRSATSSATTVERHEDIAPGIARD
# Beta-lactamase OXA-1 (Escherichia coli), sequence (P13661 whole entry): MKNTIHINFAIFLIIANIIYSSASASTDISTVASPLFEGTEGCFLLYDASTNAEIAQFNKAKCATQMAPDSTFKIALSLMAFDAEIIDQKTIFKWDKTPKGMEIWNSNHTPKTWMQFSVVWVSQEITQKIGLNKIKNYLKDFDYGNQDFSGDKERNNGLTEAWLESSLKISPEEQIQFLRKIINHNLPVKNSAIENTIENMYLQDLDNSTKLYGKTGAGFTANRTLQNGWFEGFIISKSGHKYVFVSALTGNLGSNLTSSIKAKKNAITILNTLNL
# Beta-lactamase TEM (Escherichia coli), sequence (P62593 whole entry): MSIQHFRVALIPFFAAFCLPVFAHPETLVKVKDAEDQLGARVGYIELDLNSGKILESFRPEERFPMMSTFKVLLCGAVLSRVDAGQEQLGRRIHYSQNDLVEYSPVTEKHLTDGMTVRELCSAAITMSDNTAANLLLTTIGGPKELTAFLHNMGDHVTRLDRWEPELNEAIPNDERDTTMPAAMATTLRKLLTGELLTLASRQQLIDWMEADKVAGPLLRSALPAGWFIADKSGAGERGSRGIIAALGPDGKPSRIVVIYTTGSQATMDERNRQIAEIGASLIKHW
# Beta-lactamase (Staphylococcus aureus), sequence (P00807 whole entry): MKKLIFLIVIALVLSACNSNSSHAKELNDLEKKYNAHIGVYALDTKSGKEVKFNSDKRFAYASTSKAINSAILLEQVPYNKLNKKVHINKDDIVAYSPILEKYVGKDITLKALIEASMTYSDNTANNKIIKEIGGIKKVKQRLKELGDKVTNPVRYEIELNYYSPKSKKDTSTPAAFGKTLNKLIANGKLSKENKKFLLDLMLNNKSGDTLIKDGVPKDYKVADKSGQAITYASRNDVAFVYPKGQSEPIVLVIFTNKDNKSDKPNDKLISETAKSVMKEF
# Beta-lactamase (Enterobacter cloacae), sequence (P05364 21-381 limits assumed): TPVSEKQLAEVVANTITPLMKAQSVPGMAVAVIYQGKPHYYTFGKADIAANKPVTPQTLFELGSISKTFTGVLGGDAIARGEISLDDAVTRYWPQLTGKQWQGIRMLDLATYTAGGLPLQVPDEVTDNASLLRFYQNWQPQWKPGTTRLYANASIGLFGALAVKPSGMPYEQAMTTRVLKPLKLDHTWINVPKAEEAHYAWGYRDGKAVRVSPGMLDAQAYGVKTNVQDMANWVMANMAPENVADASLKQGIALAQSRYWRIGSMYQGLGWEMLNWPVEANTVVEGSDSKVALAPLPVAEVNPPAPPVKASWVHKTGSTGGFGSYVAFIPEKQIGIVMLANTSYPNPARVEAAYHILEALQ
Compound,K cat [1] [s⁻¹],K cat [2] [s⁻¹],K cat [3] [s⁻¹],K cat [4] [s⁻¹],K [5]
CC(=O)OCC1=C(C(=O)O)N2C(=O)[C@@H](NC(=O)Cc3cccs3)[C@H]2SC1,1.2,120,200,0.001,–
O=C(Cc1ccccc1)NC1Cc2cccc(C(=O)O)c2OC1=O (stereo not given),1.2,2.07,5.4,0.0047,1.5 1/sM
O=C(O)c1cccc2c1OC(=O)C(C(=O)NCc1ccccc1)C2 (stereo not given),0.25,25.5,0.44,0.01,22 1/sM
O=C(Cc1ccccc1)NC1Cc2ccc(C(=O)O)cc2OC1=O (stereo not given),–,> 1,5.6,0.02,–
O=C(O)c1ccc2c(c1)OC(=O)C(C(=O)NCc1ccccc1)C2 (stereo not given),–,> 0.02,1.18,> 0.005,–
